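How tested: cells in 96-well plates exposed to compound for 48 hours at five concentrations. GI50 marks 50% less growth.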 Calls of active or inactive are those of the source. Rule as the data show it: active = GI50 up to about 1.1 µM and inactive = higher. Bounds are passed on as bounds.

Assay in all cases: inhibition of tumour cell growth, NCI panel, 48 h
Assay [1] concerns A549.
Assay [2] has as its system CAKI-1.
Assay [3] deals with CCRF-CEM.
Assay [4] has as its system DU-145.
Assay [5] has as its system EKVX.
Assay [6] concerns HCT-15.
For assay [7], the system named is HOP-62.
Assay [8] deals with K562.
Assay [9] has as its system M14.
The test system of assay [10] is Malme-3M.
In assay [11] the test system is NCI-H460.
For assay [12], the system named is NCI-H522.
For assay [13], the system named is NCI/ADR-RES.
For assay [14], the system named is OVCAR-3.
Assay [15] concerns OVCAR-4.
In assay [16] the test system is RPMI-8226.
Assay [17] relates to SNB-75.
The subject of assay [18] is SR.
The subject of assay [19] is T47D.
The test system of assay [20] is UO-31.

On to `COc1c(OC(C)=O)c(OC(C)=O)cc2c1-c1ccc(OC)c(=O)cc1C(NC(C)=O)CC2` (stereo not given), for which the GI50 in assay [1] was 0.209 µM (active); in assay [2] it was 0.054 µM (active); in assay [3], 0.013 µM (active); in assay [4] it was 0.0525 µM (active); in assay [5], 8.51 µM (inactive); in assay [6] it was 0.465 µM. The GI50 in assay [7] was 0.0635 µM (active); in assay [8], < 0.0123 µM (active); in assay [9] it was < 0.0125 µM (active); in [10], < 0.01 µM (active); in [11], 0.0451 µM (active); in assay [12] it was 0.0114 µM (active). The GI50 in assay [13] was 1.6 µM (inactive); in assay [14], 0.0138 µM (active); in [15], 31.9 µM (inactive); in assay [16], < 0.0142 µM (active); in [17], < 0.01 µM (active); in assay [18], 0.0128 µM (active). In addition, the GI50 in assay [19] is > 100 µM (inactive); in [20], 4.86 µM (inactive).
With `C=CCN1C(=O)/C(=C/c2cccs2)N=C1SC/C=C/C`, the GI50 in [1] was 40.7 µM (inactive); in [2], 46.9 µM (inactive); in [3], 34.8 µM (inactive); in assay [4] it was 63.1 µM (inactive); in assay [5] it was 33.6 µM (inactive); in assay [6] it was 33.5 µM. Further, the GI50 is > 100 µM (inactive) in [7]; 32.5 µM (inactive) in [8]; 69.5 µM (inactive) in assay [9]; 34 µM (inactive) in assay [10]; 38.3 µM (inactive) in assay [11]; 26.9 µM (inactive) in [12]. Besides, the GI50 was 39.1 µM (inactive) in assay [13]; 44.8 µM (inactive) in [14]; 23.3 µM (inactive) in [15]; 16.9 µM (inactive) in [16]; 17.3 µM (inactive) in [17]; 18.5 µM (inactive) in [18]. The GI50 in assay [19] is 21 µM (inactive); in assay [20], 44.2 µM (inactive).
As for `Cc1c2ncccc2c(C)c2c1[nH]c1ccc(O)cc12`, the GI50 in assay [1] is 2.56 µM (inactive); in assay [2] it was 3.32 µM (inactive); in [3], 1.33 µM (inactive); in assay [4], 7.23 µM (inactive); in assay [5] it was 1.4 µM (inactive); in assay [6] it was 3.39 µM. Also, the GI50 in [7] was 1.86 µM (inactive); in [8] it was 3.44 µM (inactive); in [9], 4.89 µM (inactive); in assay [10], 8.87 µM (inactive); in assay [11], 1.31 µM (inactive); in assay [12], 6.22 µM (inactive). For the same compound, the GI50 in [13] is 5.27 µM (inactive); in assay [14], 6.28 µM (inactive); in [15], 4.15 µM (inactive); in assay [16] it was 2 µM (inactive); in assay [17], 4.07 µM (inactive); in assay [18] it was 1.74 µM (inactive). Also, the GI50 was 8.59 µM (inactive) in assay [19] and 3.35 µM (inactive) in assay [20].
Consider `N=C(CC(=O)Nc1ccccn1)c1ccccc1`, for which the GI50 in [1] is > 100 µM (inactive); in [2], > 100 µM (inactive); in assay [3] it was > 100 µM (inactive); in [4], > 100 µM (inactive); in assay [5], > 100 µM (inactive); in [6], > 100 µM. Moreover, the GI50 in [7], in [8], in assay [9], in assay [10], in assay [11] and in [12] was > 100 µM (inactive) throughout. Also, the GI50 in [13], in assay [14], in assay [15], in [16], in assay [17] and in assay [18] was > 100 µM (inactive) each time. Also, the GI50 in assay [19] and in [20] was > 100 µM (inactive) each time.
For `C=C1C(=O)O[C@@H]2C[C@@H](C)[C@@H]3[C@@H](OC4OC(COC(C)=O)C(O)C(O)C4O)CC(=O)[C@@]3(C)C[C@H]12` (stereo not given in full), the GI50 in assay [1] was 8.67 µM (inactive); in [2], 0.508 µM (active); in [3], 0.238 µM (active); in assay [4], 8.38 µM (inactive); in [5] it was 1.87 µM (inactive); in assay [6], 0.218 µM. For the same compound, the GI50 in assay [7] was 17.3 µM (inactive); in assay [8] it was 0.596 µM (active); in assay [9], 1.43 µM (inactive); in assay [10] it was 0.283 µM (active); in assay [11], 14.3 µM (inactive); in [12], 0.127 µM (active). Further, the GI50 in [13] was 0.855 µM (active); in assay [14] it was 1.1 µM (active); in assay [15], 3.31 µM (inactive); in assay [16] it was 1.39 µM (inactive); in assay [17], 7.31 µM (inactive); in assay [18], 1.6 µM (inactive). In addition, the GI50 was 2.84 µM (inactive) in [19] and 1.83 µM (inactive) in [20].
Turning to `Cc1cc(C)nc(NS(=O)(=O)c2ccc(NC(=O)c3ccc4nc5ccccc5c(Nc5ccc(S(N)(=O)=O)cc5)c4c3)cc2)n1`, the GI50 in assay [1] was > 100 µM (inactive); in assay [2], > 100 µM (inactive); in [3], 28.2 µM (inactive); in [4] it was > 100 µM (inactive); in assay [5], > 100 µM (inactive); in [6] it was > 100 µM. Also, the GI50 in assay [7] is > 100 µM (inactive); in assay [8] it was 40 µM (inactive); in assay [9], > 100 µM (inactive); in assay [10], 93.3 µM (inactive); in [11] it was > 100 µM (inactive); in assay [12], 34.2 µM (inactive). For the same compound, the GI50 was > 100 µM (inactive) in assay [13]; 48.5 µM (inactive) in assay [14]; 83.8 µM (inactive) in [15]; 64.1 µM (inactive) in [16]; > 100 µM (inactive) in assay [17]; 40.1 µM (inactive) in [18]. The GI50 in assay [19] and in assay [20] was > 100 µM (inactive) throughout.
Take `O=CC(O)C(O)C(O)C1CNC(=S)O1` (stereo not given): the GI50 in assay [1] was > 100 µM (inactive); in [2] it was > 100 µM (inactive); in assay [3] it was > 100 µM (inactive); in [4] it was > 100 µM (inactive); in [5], > 100 µM (inactive); in assay [6] it was > 100 µM. The GI50 in assay [7], in assay [8], in assay [9], in assay [10], in assay [11] and in [12] was > 100 µM (inactive) each time. Moreover, the GI50 in assay [13], in assay [14], in assay [15], in assay [16], in assay [17] and in assay [18] was > 100 µM (inactive) each time. In addition, the GI50 in [19] and in assay [20] was > 100 µM (inactive) in each case.
On to `COc1cccc2nc3c(C(=O)NCCN(C)C)cccc3cc12`, for which the GI50 in [1] was 0.473 µM (active); in [2], 0.619 µM (active); in assay [3] it was 0.518 µM (active); in assay [4] it was 5.74 µM (inactive); in assay [5] it was 2.38 µM (inactive); in assay [6], 1.91 µM. Also, the GI50 is 1.19 µM (inactive) in assay [7]; 1.95 µM (inactive) in [8]; 1.64 µM (inactive) in assay [9]; 1.56 µM (inactive) in [10]; 0.195 µM (active) in [11]; 1.26 µM (inactive) in assay [12]. Also, the GI50 was 2.71 µM (inactive) in [13]; 3.14 µM (inactive) in assay [14]; 1.67 µM (inactive) in assay [15]; 1.21 µM (inactive) in [16]; 4.88 µM (inactive) in assay [17]; 0.42 µM (active) in assay [18]. Moreover, the GI50 in [19] was 3.65 µM (inactive); in [20] it was 1.11 µM (active).
For the compound `C[C@]12CCC(=O)[C@@H](CCC3=CC(=O)C=CC3=O)[C@@H]1CCC2=O`, the GI50 in assay [1] is 18.8 µM (inactive); in [2], 12.7 µM (inactive); in assay [3], 1.87 µM (inactive); in assay [4], 17.9 µM (inactive); in assay [5] it was 18.4 µM (inactive); in assay [6], 17.4 µM. In addition, the GI50 in assay [7] was 39.2 µM (inactive); in assay [8], 2.14 µM (inactive); in [9], 17.8 µM (inactive); in assay [10], 16.1 µM (inactive); in assay [11] it was 13.2 µM (inactive); in assay [12], 2.19 µM (inactive). For the same compound, the GI50 in [13] was 38 µM (inactive); in assay [14] it was 17.1 µM (inactive); in [15] it was 17.2 µM (inactive); in assay [16] it was 1.6 µM (inactive); in [17], 5.48 µM (inactive); in assay [18] it was 0.0102 µM (active). Moreover, the GI50 in assay [19] was 9.23 µM (inactive); in assay [20] it was 14.3 µM (inactive).
`COC(=O)C1=CON2C3CC4CC(C3)CC(C4)C12C` (stereo not given): the GI50 in assay [1] was > 100 µM (inactive); in assay [2] it was > 100 µM (inactive); in assay [3], > 100 µM (inactive); in assay [4], > 100 µM (inactive); in [5], > 100 µM (inactive); in assay [6] it was > 100 µM. The GI50 in [7], in assay [8], in assay [9], in [10], in assay [11] and in assay [12] was > 100 µM (inactive) throughout. Also, the GI50 in assay [13], in assay [14], in [15], in assay [16], in assay [17] and in [18] was > 100 µM (inactive) in each case. In addition, the GI50 in [19] and in assay [20] was > 100 µM (inactive) each time.

(Values after ChEMBL document CHEMBL1201862, “PubChem BioAssay data set” (2004).)
